# Article PMC9188596, “Structural basis of resistance to herbicides that target acetohydroxyacid synthase” (Nature Communications, 2022)
# Where “and” joins values, the source holds several entries; their conditions need not be identical. Equal entries are not always repeated. Entries after “also recorded” stand apart in the source; their conditions may differ. Where two headings read alike, the source gives them in different places.
# Key:
# AtAHAS P197L mutant [1] = molecular target: T1, AtAHAS P197L mutant (Arabidopsis thaliana, UniProt P17597, P197L); experiment: biochemical
# Description: (§1) Standard assays were performed using a continuous spectrophotometric method measuring the disappearance of pyruvate. The standard buffer contained 50 mM potassium phosphate, pH 7.2, 1 mM ThDP, 10 mM MgCl2, and 10 µM FAD. The concentration of pyruvate was in the range 100–160 mM, as described in the text, methods, or figure legends.
# (§2) Supplementary Figure 6. Measurement of the Ki values for WT AtAHAS and the mutants.
# (§3) The error bars represent the standard error of the mean of two independent replicates. [I] =
# (§4) inhibitor concentration. Source data are provided with this paper.
# (§5) (1 picture or pasted object on this page, not shown here)
# AtAHAS P197T mutant [2] = molecular target: T2, AtAHAS P197T mutant (Arabidopsis thaliana, UniProt P17597, P197T); experiment: biochemical
# Description: as §1, §2, §3, §4, §5
# AtAHAS S653T mutant [3] = molecular target: T3, AtAHAS S653T mutant (Arabidopsis thaliana, UniProt P17597, S653T); experiment: biochemical
# Description: as §1, §2, §3, §4, §5
# AtAHAS W574L mutant [4] = molecular target: T4, AtAHAS W574L mutant (Arabidopsis thaliana, UniProt P17597, W574L); experiment: biochemical; conditions: for increase in Ki / loss of affinity compared to WT: W574L vs WT
# Description: as §1, §2, §3, §4, §5
# WT AtAHAS [5] = molecular target: T5, WT AtAHAS (Arabidopsis thaliana, UniProt P17597); type: biochemical; conditions: for k3 (rate of recovery) / kiapp (apparent rate of enzyme inactivation): 160 mM pyruvate, 30 °C, ± SEM; for k3, single progress curve (Supplementary Figure 8) / kiapp, single progress curve (Supplementary Figure 8): individual replicate of triplicate
# Description: as §1
# (§6) AtAHAS was assayed in the standard assay buffer containing 160 mM pyruvate, at 30 °C. For AtAHAS activation the progress curve corresponding to the lag-phase was fitted to Eq. (8) of Lonhienne et al.[14]. For the time dependent accumulative inhibition of AtAHAS the progress curves were fitted to Equation 9 of Lonhienne et al.[12].
# Supplementary Figure 8. Measurement of the rate constants of accumulative inhibition for WT AtAHAS and its mutants. The progress curves were fitted to the equation of accumulative inhibition (Equation 7 2). The rate constants of enzyme inactivation ( kiapp) and enzyme recovery (k3) were measured in triplicate. Source data are provided with this paper.
# AtAHAS P197L mutant [6] = molecular target: T1, AtAHAS P197L mutant; type: biochemical; conditions: for k3 (rate of recovery) / kiapp (apparent rate of enzyme inactivation): 160 mM pyruvate, 30 °C; for k3 (rate of recovery) / kiapp (apparent rate of enzyme inactivation) / kiapp/k3 (efficiency of accumulative inhibition): NAI = no accumulative inhibition detected; for k3, single progress curve (Supplementary Figure 8) / kiapp, single progress curve (Supplementary Figure 8): individual replicate of triplicate
# Description: as §1, §6
# (§7) Supplementary Figure 8. Measurement of the rate constants of accumulative inhibition for WT AtAHAS and its mutants. The progress curves were fitted to the equation of accumulative inhibition (Equation 7 2). The rate constants of enzyme inactivation ( kiapp) and enzyme recovery (k3) were measured in triplicate. Source data are provided with this paper. […]
# AtAHAS P197T mutant [7] = molecular target: T2, AtAHAS P197T mutant; type: biochemical; conditions: for k3 (rate of recovery) / kiapp (apparent rate of enzyme inactivation) / kiapp/k3 (efficiency of accumulative inhibition) / k3, single progress curve (Supplementary Figure 8) / kiapp, single progress curve (Supplementary Figure 8): P197T; for k3 (rate of recovery) / kiapp (apparent rate of enzyme inactivation): 160 mM pyruvate, 30 °C; for k3 (rate of recovery) / kiapp (apparent rate of enzyme inactivation) / kiapp/k3 (efficiency of accumulative inhibition): NAI = no accumulative inhibition detected; for k3, single progress curve (Supplementary Figure 8) / kiapp, single progress curve (Supplementary Figure 8): individual replicate of triplicate
# Description: as §1, §6, §7
# AtAHAS S653T mutant [8] = molecular target: T3, AtAHAS S653T mutant; type: biochemical; conditions: for kiapp/k3 (efficiency of accumulative inhibition) / k3 (rate of recovery) / kiapp (apparent rate of enzyme inactivation) / k3, single progress curve (Supplementary Figure 8) / kiapp, single progress curve (Supplementary Figure 8): S653T; for k3 (rate of recovery) / kiapp (apparent rate of enzyme inactivation): 160 mM pyruvate, 30 °C, ± SEM; for k3, single progress curve (Supplementary Figure 8) / kiapp, single progress curve (Supplementary Figure 8): individual replicate of triplicate
# Description: as §1, §6, §7
# AtAHAS W574L mutant [9] = molecular target: T4, AtAHAS W574L mutant; type: biochemical; conditions: for k3 (rate of recovery) / kiapp (apparent rate of enzyme inactivation): 160 mM pyruvate, 30 °C; for k3 (rate of recovery) / kiapp (apparent rate of enzyme inactivation) / kiapp/k3 (efficiency of accumulative inhibition): NAI = no accumulative inhibition detected
# Description: as §1, §6, §7
# WT AtAHAS [10] = molecular target: T5, WT AtAHAS; conditions: cited from earlier work
# [11] = Ki (Supplementary Figure 6), P197L, fit of % activity remaining vs [I], two independent replicates
# [12] = Ki, P197L mutant, ± standard error of the mean
# [13] = Ki (Supplementary Figure 6), P197T, fit of % activity remaining vs [I], two independent replicates
# [14] = Ki, P197T mutant, ± standard error of the mean
# [15] = Ki, S653T mutant, ± standard error of the mean
# [16] = Ki, W574L mutant, ± standard error of the mean
# [17] = individual replicate of triplicate
# [18] = ± standard error of the mean, ref Garcia et al.[13]
smiles,measurement,setting,value
"COc1cc(OC)nc(Oc2cccc(Oc3nc(OC)cc(OC)n3)c2C(=O)O)n1 [BS, bispyribac]",Ki,AtAHAS P197L mutant [1]; [11],0.115 ± 0.0134 µM
same,Ki,AtAHAS P197L mutant [1]; [12],0.115 ± 0.013 µM
same,loss of affinity,AtAHAS P197L mutant [1]; P197L vs WT,~ 50%
same,Ki,AtAHAS P197T mutant [2]; [13],0.106 ± 0.00483 µM
same,Ki,AtAHAS P197T mutant [2]; [14],0.106 ± 0.0048 µM
same,increase in Ki / loss of affinity compared to WT,AtAHAS P197T mutant [2]; P197T vs WT,around three-fold
same,loss of affinity,AtAHAS P197T mutant [2]; P197T vs WT,~ 50%
same,Ki,AtAHAS S653T mutant [3]; [15],0.09 ± 0.0131 µM
same,loss of affinity,AtAHAS S653T mutant [3]; S653T vs WT,~ 50%
same,Ki,"AtAHAS W574L mutant [4]; Ki (Supplementary Figure 6), W574L, fit of % activity remaining vs [I], two independent replicates",6.11 ± 0.988 µM
same,Ki,AtAHAS W574L mutant [4]; [16],6.1 ± 1 µM
same,increase in Ki / loss of affinity compared to WT,AtAHAS W574L mutant [4],150 fold
same,kiapp/k3 (efficiency of accumulative inhibition),WT AtAHAS [5],18
same,k3 (rate of recovery),WT AtAHAS [5],0.018 ± 0.002 min⁻¹
same,kiapp (apparent rate of enzyme inactivation),WT AtAHAS [5],0.32 ± 0.03 min⁻¹
same,"k3, single progress curve (Supplementary Figure 8)",WT AtAHAS [5],0.022 min⁻¹ and 0.018 min⁻¹ and 0.014 min⁻¹
same,"kiapp, single progress curve (Supplementary Figure 8)",WT AtAHAS [5],0.38 min⁻¹ and 0.28 min⁻¹ and 0.3 min⁻¹
same,k3 (rate of recovery),AtAHAS P197L mutant [6],0.037 ± 0.003 min⁻¹
same,kiapp (apparent rate of enzyme inactivation),AtAHAS P197L mutant [6],1.15 ± 0.09 min⁻¹
same,kiapp/k3 (efficiency of accumulative inhibition),AtAHAS P197L mutant [6],31
same,"k3, single progress curve (Supplementary Figure 8)",AtAHAS P197L mutant [6],0.043 min⁻¹ and 0.036 min⁻¹ and 0.032 min⁻¹
same,"kiapp, single progress curve (Supplementary Figure 8)",AtAHAS P197L mutant [6],1.33 min⁻¹ and 1.1 min⁻¹ and 1.03 min⁻¹
same,k3 (rate of recovery),AtAHAS P197T mutant [7],0.031 ± 0.004 min⁻¹
same,kiapp (apparent rate of enzyme inactivation),AtAHAS P197T mutant [7],1.14 ± 0.11 min⁻¹
same,kiapp/k3 (efficiency of accumulative inhibition),AtAHAS P197T mutant [7],37
same,"k3, single progress curve (Supplementary Figure 8)",AtAHAS P197T mutant [7],0.035 min-1 (2×) and 0.023 min-1
same,"kiapp, single progress curve (Supplementary Figure 8)",AtAHAS P197T mutant [7],1.09 min⁻¹ and 0.98 min⁻¹ and 1.34 min⁻¹
same,increase in efficiency of accumulative inhibition compared to WT,AtAHAS P197T mutant [7]; P197 mutant vs WT (kiapp/k3),two-fold
same,kiapp/k3 (efficiency of accumulative inhibition),AtAHAS S653T mutant [8],39
same,efficiency of accumulative inhibition (kiapp/k3) compared to WT (in words),AtAHAS S653T mutant [8]; S653T vs WT,increased
same,k3 (rate of recovery),AtAHAS S653T mutant [8],0.017 ± 0.001 min⁻¹
same,kiapp (apparent rate of enzyme inactivation),AtAHAS S653T mutant [8],0.66 ± 0.04 min⁻¹
same,"k3, single progress curve (Supplementary Figure 8)",AtAHAS S653T mutant [8],0.018 min⁻¹ and 0.019 min⁻¹ and 0.015 min⁻¹
same,"kiapp, single progress curve (Supplementary Figure 8)",AtAHAS S653T mutant [8],0.59 min⁻¹ and 0.71 min⁻¹ and 0.69 min⁻¹
same,accumulative inhibition (in words),AtAHAS W574L mutant [9],irreversible; also recorded: still can promote accumulative inhibition
same,k3 (rate of recovery),AtAHAS W574L mutant [9],<1e-12 min⁻¹
same,kiapp (apparent rate of enzyme inactivation),AtAHAS W574L mutant [9],0.03 ± 0.006 min⁻¹
same,kiapp/k3 (efficiency of accumulative inhibition),AtAHAS W574L mutant [9],>10^11
same,"k3, single progress curve (Supplementary Figure 8)",AtAHAS W574L mutant [9]; [17],~ 0 min-1
same,"kiapp, single progress curve (Supplementary Figure 8)",AtAHAS W574L mutant [9]; [17],0.043 min⁻¹ and 0.026 min⁻¹ and 0.025 min⁻¹
same,Ki,WT AtAHAS [10]; [18],0.041 ± 0.006 µM
"CC(C)C1(C)N=C(c2nc3ccccc3cc2C(=O)O)NC1=O (stereo not shown) [IQ, imazaquin]",Ki,AtAHAS P197L mutant [1]; [11],13.8 ± 1.14 µM
same,Ki,AtAHAS P197L mutant [1]; [12],13.8 ± 1.1 µM
same,Ki,AtAHAS P197T mutant [2]; [13],12.4 ± 1.83 µM
same,Ki,AtAHAS P197T mutant [2]; [14],12.4 ± 1.8 µM
same,Ki,"AtAHAS S653T mutant [3]; Ki (Supplementary Figure 6), S653T, fit of % activity remaining vs [I], two independent replicates",240 ± 25.5 µM
same,Ki,AtAHAS S653T mutant [3]; [15],240 ± 26 µM
same,increase in Ki compared to WT,AtAHAS S653T mutant [3]; S653T vs WT,more than 10 fold
same,Ki,AtAHAS W574L mutant [4]; [16],704 ± 58.5 µM
same,increase in Ki / loss of affinity compared to WT,AtAHAS W574L mutant [4],38 fold
same,accumulative inhibition (in words),WT AtAHAS [5],irreversible
same,kiapp/k3 (efficiency of accumulative inhibition),WT AtAHAS [5],>10^11
same,k3 (rate of recovery),WT AtAHAS [5],<1e-12 min⁻¹
same,kiapp (apparent rate of enzyme inactivation),WT AtAHAS [5],0.86 ± 0.03 min⁻¹
same,"k3, single progress curve (Supplementary Figure 8)",WT AtAHAS [5],~ 0 min-1
same,"kiapp, single progress curve (Supplementary Figure 8)",WT AtAHAS [5],0.86 min⁻¹ and 0.92 min⁻¹ and 0.83 min⁻¹
same,k3 (rate of recovery),AtAHAS P197L mutant [6],<1e-12 min⁻¹
same,kiapp (apparent rate of enzyme inactivation),AtAHAS P197L mutant [6],0.26 ± 0.008 min⁻¹
same,kiapp/k3 (efficiency of accumulative inhibition),AtAHAS P197L mutant [6],>10^11
same,"k3, single progress curve (Supplementary Figure 8)",AtAHAS P197L mutant [6],~ 0 min-1
same,"kiapp, single progress curve (Supplementary Figure 8)",AtAHAS P197L mutant [6],0.25 min-1 (2×) and 0.26 min-1
same,k3 (rate of recovery),AtAHAS P197T mutant [7],<1e-12 min⁻¹
same,kiapp (apparent rate of enzyme inactivation),AtAHAS P197T mutant [7],0.27 ± 0.012 min⁻¹
same,kiapp/k3 (efficiency of accumulative inhibition),AtAHAS P197T mutant [7],>10^11
same,"k3, single progress curve (Supplementary Figure 8)",AtAHAS P197T mutant [7],~ 0 min-1
same,"kiapp, single progress curve (Supplementary Figure 8)",AtAHAS P197T mutant [7],0.29 min-1 and 0.28 min-1 (2×)
same,kiapp/k3 (efficiency of accumulative inhibition),AtAHAS S653T mutant [8],>10^11
same,k3 (rate of recovery),AtAHAS S653T mutant [8],<1e-12 min⁻¹
same,kiapp (apparent rate of enzyme inactivation),AtAHAS S653T mutant [8],0.37 ± 0.017 min⁻¹
same,"k3, single progress curve (Supplementary Figure 8)",AtAHAS S653T mutant [8],~ 0 min-1
same,"kiapp, single progress curve (Supplementary Figure 8)",AtAHAS S653T mutant [8],0.34 min⁻¹ and 0.38 min⁻¹ and 0.39 min⁻¹
same,k3 (rate of recovery),AtAHAS W574L mutant [9],NAI
same,kiapp (apparent rate of enzyme inactivation),AtAHAS W574L mutant [9],NAI
same,kiapp/k3 (efficiency of accumulative inhibition),AtAHAS W574L mutant [9],NAI
same,Ki,WT AtAHAS [10],18 µM
same,Ki,WT AtAHAS [10]; [18],18.5 ± 2 µM
